Data: patent publication US3950517A, “Insulin derivatives” (National Research Development Corporation, priority 1970, dated 1976)

Key:
Mouse = Mouse convulsion assay (British Pharmacopoeia, 1968) against neutral insulin standard; format: in vivo; conditions: Table 1; percentage basis relative to insulin
From the text: (§1) In most cases the new derivatives have an initial bloor sugar lowering effect which is virtually indistinguishable from insulin itself. In contrast the derivatives have less than about 50% of the immunoreactivity of the parent insulin as determined by radioimmunoassay. In many cases the reduction in immunoreactivity (reactivity towards specific insulin antibody) is as low as 30% or even 10% of that of the parent hormone. The figures are expressed on a percentage basis relative to insulin.
The insulin derivatives were separated from trace amounts of urea and salt by elution from a Sephadex G.10 column (2.5 × 60 cm.) equilibrated with 5% aqueous acid and the protein, after lyophilisation, was dried over phosphorous pentoxide at room temperature for 2 days. The derivatives were assayed against a neutral insulin solution (Nuso insulin batch A 354) as standard by the Mouse Convulsion method (British Pharmacopoeia, 1968). All injections were of solutions in acetate buffer, pH 8.0.

[1] = test system: specific insulin antibody; test: Radioimmunoassay of immunoreactivity (reactivity towards specific insulin antibody); format: binding; conditions: percentage basis relative to insulin; for Radioimmunoassay Immunoreactivity: Table 1; for Immunoreactivity: Table 2
From the text: as §1

blood sugar = test: Blood sugar lowering activity by intravenous injection into laboratory animals; format: in vivo; conditions: Table 2; percentage basis relative to insulin
From the text: as §1

Phe^B1 Gly^A1 -diacetyl insulin
Mouse convulsion assay Mean potency (Mouse): 90%
Radioimmunoassay Immunoreactivity [1]: 25%

Gly^A1 -monosubstituted insulins (a) Acetyl (bovine): Bovine insulin acetylated at the A1 glycine amino group
Mouse convulsion assay Mean potency (Mouse): 105%
Radioimmunoassay Immunoreactivity [1]: 71%

Phe^B1 -Gly^A1 -disubstituted insulins (b) methylthiocarbamyl: Insulin methylthiocarbamylated at A1 and B1
Blood sugar lowering (blood sugar): 100%
Immunoreactivity [1]: 20%

Phe^B1 acetyl insulin
Mouse convulsion assay Mean potency (Mouse): 100%
Radioimmunoassay Immunoreactivity [1]: 30%

(Carbamyl-Phe)B1 -insulin
Blood sugar lowering (blood sugar): 100%
Immunoreactivity [1]: 23%

Gly^A1 Lys^B29 -diacetyl insulin
Mouse convulsion assay Mean potency (Mouse): 93%
Radioimmunoassay Immunoreactivity [1]: 67%

Crystalline bovine insulin: Parent bovine insulin, reference set to 100 [reference compound]
Mouse convulsion assay Mean potency (Mouse): 100%
Blood sugar lowering (blood sugar): 100%
Radioimmunoassay Immunoreactivity [1]: 100%
Immunoreactivity [1]: 100%

A1, B1, B29 -triacetyl-insulin
Mouse convulsion assay Mean potency (Mouse): 96%
Radioimmunoassay Immunoreactivity [1]: 10%

Gly^A1 -monosubstituted insulin (a) carbamyl: Insulin carbamylated at A1 glycine
Blood sugar lowering (blood sugar): 100%

Phe^B1, Gly^A1, Lys^B29 -trisubstituted insulins (b) Acetoacetyl (bovine): Bovine insulin acetoacetylated at A1, B1 and B29
Mouse convulsion assay Mean potency (Mouse): 77%
Radioimmunoassay Immunoreactivity [1]: 17%

Phe^B1, Gly^A1 -disubstituted insulins (b) Acetoacetyl (bovine): Bovine insulin acetoacetylated at B1 and A1
Mouse convulsion assay Mean potency (Mouse): 76%
Radioimmunoassay Immunoreactivity [1]: 14%

Gly^A1 -monosubstituted insulins (b) Acetoacetyl (bovine): Bovine insulin acetoacetylated at the A1 glycine amino group
Mouse convulsion assay Mean potency (Mouse): 88%
Radioimmunoassay Immunoreactivity [1]: 87%

Lys^B29 acetyl insulin
Mouse convulsion assay Mean potency (Mouse): 114%
Radioimmunoassay Immunoreactivity [1]: 83%

Phe^B1 -monosubstituted insulins (b) Acetoacetyl (bovine): Bovine insulin acetoacetylated (diketen) at the B1 phenylalanine amino group
Mouse convulsion assay Mean potency (Mouse): 109%
Radioimmunoassay Immunoreactivity [1]: 8.6%

Gly^A1 -monosubstituted insulins (c) Thiazolidine (bovine): Bovine insulin acylated at A1 glycine with 2,2-dimethyl-3-formyl-L-thiazolidine-4-carboxylic acid
Mouse convulsion assay Mean potency (Mouse): 57%
Radioimmunoassay Immunoreactivity [1]: 81%

(Carbamyl-Gly)A1 -(Carbamyl-Phe)B1 -(Carbamyl-Lys)B29 -insulin
Blood sugar lowering (blood sugar): 100%
Immunoreactivity [1]: 9%

Phe^B1 -monosubstituted insulins (c) Thiazolidine (bovine): Bovine insulin acylated at B1 phenylalanine with 2,2-dimethyl-3-formyl-L-thiazolidine-4-carboxylic acid
Mouse convulsion assay Mean potency (Mouse): 103%
Radioimmunoassay Immunoreactivity [1]: 27%

Lys^B29 -monosubstituted insulins (b) Thiazolidine (bovine): Bovine insulin acylated at B29 lysine with 2,2-dimethyl-3-formyl-L-thiazolidine-4-carboxylic acid
Mouse convulsion assay Mean potency (Mouse): 101%
Radioimmunoassay Immunoreactivity [1]: 84%

Gly^A1 -monosubstituted insulin (b) methylthiocarbamyl: Insulin methylthiocarbamylated at A1 glycine
Blood sugar lowering (blood sugar): 100%
Immunoreactivity [1]: 92%

(Carbamyl-Gly)A1 -(Carbamyl-Phe)B1 -insulin
Blood sugar lowering (blood sugar): 100%
Immunoreactivity [1]: 10%
